What was measured:
[1] = molecular target: T1, Class 1 phosphodiesterase PDEB1 (Trypanosoma brucei, UniProt Q8WQX9); experiment: Inhibition of Trypanosoma brucei recombinant PDEB1 pre-incubated for 5 mins prior to substrate addition
T1 sequence (Q8WQX9 whole entry): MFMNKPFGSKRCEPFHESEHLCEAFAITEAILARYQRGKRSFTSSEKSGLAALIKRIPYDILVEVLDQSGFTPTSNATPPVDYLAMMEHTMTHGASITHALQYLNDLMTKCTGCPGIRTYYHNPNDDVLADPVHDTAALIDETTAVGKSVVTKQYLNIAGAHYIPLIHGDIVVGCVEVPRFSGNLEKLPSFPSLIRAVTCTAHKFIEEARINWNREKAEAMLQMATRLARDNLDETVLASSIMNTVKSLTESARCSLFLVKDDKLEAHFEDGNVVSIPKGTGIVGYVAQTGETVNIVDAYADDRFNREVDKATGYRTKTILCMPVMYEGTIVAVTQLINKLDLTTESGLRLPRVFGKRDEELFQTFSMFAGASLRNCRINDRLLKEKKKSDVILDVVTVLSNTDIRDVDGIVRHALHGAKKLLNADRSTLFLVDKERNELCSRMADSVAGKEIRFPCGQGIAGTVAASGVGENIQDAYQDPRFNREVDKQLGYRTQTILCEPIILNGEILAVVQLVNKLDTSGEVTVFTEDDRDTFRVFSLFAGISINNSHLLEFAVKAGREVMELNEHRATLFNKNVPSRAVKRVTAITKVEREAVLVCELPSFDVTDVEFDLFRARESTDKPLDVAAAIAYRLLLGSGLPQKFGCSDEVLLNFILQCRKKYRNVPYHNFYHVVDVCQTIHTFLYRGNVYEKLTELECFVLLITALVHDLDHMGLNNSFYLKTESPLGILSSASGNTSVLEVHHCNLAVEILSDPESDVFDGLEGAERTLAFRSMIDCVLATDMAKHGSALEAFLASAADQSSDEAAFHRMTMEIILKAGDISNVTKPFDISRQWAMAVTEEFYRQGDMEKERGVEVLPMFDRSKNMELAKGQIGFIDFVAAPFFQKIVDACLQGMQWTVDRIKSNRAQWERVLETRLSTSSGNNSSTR

[2] = molecular target: T2, Class 1 phosphodiesterase PDEB1 (Trypanosoma brucei) (UniProt Q8WQX9); experiment: Inhibition of Trypanosoma brucei recombinant PDEB1 at 10 uM pre-incubated for 5 mins prior to substrate addition
T2 sequence (whole entry): T1 sequence (Q8WQX9 whole entry)

Trypanosoma brucei = experiment: Antiparasitic activity against Trypanosoma brucei after 22 to 24 hrs by Alamar blue cell viability assay; type: functional, organism-based
[3] = Cytotoxicity against mouse NIH/3T3 cells by Alamar blue cell viability assay; type: cell-based, NIH3T3; details: read-out: TC50 (the source's name)
[4] = Inhibition of Trypanosoma brucei PDEB2

Row | Structure (SMILES) | IC50 [1] [µM] | inhibition [2] [%] | also measured
1 | COc1ccc([C@]2(C#N)CC[C@@H](C(=O)O)CC2)cc1OCCCCOc1ccc(F)cc1 | 9.2 | 79 | –
2 | COc1ccc([C@]2(C#N)CC[C@@H](C(=O)O)CC2)cc1OCCCCOc1ccc(-c2nn[nH]n2)cc1 | 7.9 | 69 | –
3 | COc1ccc([C@]2(C#N)CC[C@@H](C(=O)O)CC2)cc1OCCCCOc1ccc(C#N)cc1 | 3.6 | 87 | –
4 | COc1ccc([C@]2(C#N)CC[C@H](C(=O)O)CC2)cc1OC1CCCC1 | – | 9.3 | –
5 | COc1ccc([C@]2(C#N)CC[C@@H](C(=O)O)CC2)cc1OCCCCCOc1ccccc1 | 9.8 | 54 | –
6 | COc1ccc([C@]2(C#N)CC[C@@H](C(=O)O)CC2)cc1OCc1ccccc1 | 12 | 77 | –
7 | COc1ccc([C@]2(C#N)CC[C@@H](C(=O)O)CC2)cc1OCc1ccncc1 | – | 11 | –
8 | COc1ccc(OCCCCOc2cc([C@]3(C#N)CC[C@@H](C(=O)O)CC3)ccc2OC)cc1 | 3.5 | 79 | –
9 | COc1ccc([C@]2(C#N)CC[C@H](C(=O)O)CC2)cc1OCc1ccccc1 | – | 20 | –
10 | COc1ccc([C@]2(C#N)CC[C@@H](C(=O)OC)CC2)cc1OC1CCCC1 | – | 31 | –
11 | COc1ccc(C2(C#N)CCN(CC(=O)O)CC2)cc1OC1CCCC1 | – | 11 | –
12 | COc1ccc([C@]2(C#N)CC[C@@H](C(=O)O)CC2)cc1OCCCOc1ccccc1 | 11 | 66 | –
13 | COc1ccc([C@]2(C#N)CC[C@@H](C(=O)OC)CC2)cc1OCc1ccccc1 | – | 40 | –
14 | COc1ccc([C@]2(C#N)CC[C@@H](C(=O)O)CC2)cc1OC1CCCC1 [CILOMILAST] | 16 | – | EC50 (Trypanosoma brucei): > 50 µM; CC50 [3]: > 50 µM
15 | CCOC(=O)CN1CCC(C#N)(c2ccc(OC)c(OC3CCCC3)c2)CC1 | – | 6 | –
16 | COc1ccc(C2(C#N)CCNCC2)cc1OC1CCCC1 | – | 19 | –
17 | COc1ccc([C@]2(C#N)CC[C@@H](C(=O)O)CC2)cc1OCc1ccccn1 | – | 33 | –
18 | COc1ccc([C@]2(C#N)CC[C@H](C(=O)OC)CC2)cc1OCc1ccccc1 | – | 28 | –
19 | COc1ccc([C@]2(C#N)CC[C@H](C(=O)OC)CC2)cc1OC1CCCC1 | – | 26 | –
20 | COc1ccc([C@]2(C#N)CC[C@@H](C(=O)O)CC2)cc1OCCCCOc1ccc(C)cc1 | 4.9 | 74 | –
21 | COc1ccc([C@]2(C#N)CC[C@@H](C(=O)O)CC2)cc1OCCCCOc1ccccc1 | – | 96 | EC50 (Trypanosoma brucei): 26 µM; IC50 [4]: 2.1 µM; CC50 [3]: > 50 µM

Reference: ChEMBL document CHEMBL3352078, “Repurposing human PDE4 inhibitors for neglected tropical diseases: design, synthesis and evaluation of cilomilast analogues as Trypanosoma brucei PDEB1 inhibitors” (Bioorg Med Chem Lett, 2014)
